Assay results from patent US9278981B2, “Compounds and compositions for inhibiting the activity of ABL1, ABL2 and BCR-ABL1” (Novartis AG, priority 2012, dated 2016).
pIC50: −log10 of the molar value.

Assays:
[1] = biological target: T1, ABL1 (64-515) (Homo sapiens (Human), UniProt P00519); assay: Radio ABL1 (64-515) assay (radiometric filter-binding); assay type: biochemical
[2] = biological target: T1, ABL1 (64-515); assay: Caliper ABL1 (64-515) assay (microfluidic mobility shift); assay type: biochemical
[3] = comparison of ortho substitution on the R3/R4 ring

T1 sequence (P00519 64-515): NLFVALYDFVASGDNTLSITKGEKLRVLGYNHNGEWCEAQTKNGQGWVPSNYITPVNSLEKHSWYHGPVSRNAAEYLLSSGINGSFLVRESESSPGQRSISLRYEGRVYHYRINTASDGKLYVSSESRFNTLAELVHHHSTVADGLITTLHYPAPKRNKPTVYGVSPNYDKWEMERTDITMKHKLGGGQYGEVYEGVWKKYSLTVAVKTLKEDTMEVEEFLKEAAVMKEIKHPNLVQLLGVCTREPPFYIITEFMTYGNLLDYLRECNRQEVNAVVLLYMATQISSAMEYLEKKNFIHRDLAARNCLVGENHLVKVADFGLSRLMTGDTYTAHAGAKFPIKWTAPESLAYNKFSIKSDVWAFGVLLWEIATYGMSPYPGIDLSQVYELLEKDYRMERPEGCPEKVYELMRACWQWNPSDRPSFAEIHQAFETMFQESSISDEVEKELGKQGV

pIC50 [1]	pIC50 [2]	pIC50 [2, 3]	SMILES
8.22	8.64	–	O=C(Nc1ccc(OC(F)(F)C(F)(F)F)cc1)c1cnc(N2CC[C@@H](O)C2)c(-c2cncnc2)c1 [Example 220, (R)-6-(3-Hydroxypyrrolidin-1-yl)-N-(4-(perfluoroethoxy)phenyl)-5-(pyrimidin-5-yl)nicotinamide]
8.38	9.10	–	O=C(Nc1ccc(OC(F)(F)F)cc1)c1cnc(N2CC[C@@H](O)C2)c(-c2cnccc2F)c1 [Example 48, (R)-4′-Fluoro-2-(3-hydroxypyrrolidin-1-yl)-N-(4-(trifluoromethoxy)phenyl)-[3,3′-bipyridine]-5-carboxamide]
8.00	8.89	–	O=C(Nc1ccc(OC(F)(F)C(F)(F)F)cc1)c1cnc(N2CC[C@@H](O)C2)c(-c2cncc(F)c2)c1 [Example 221, (R)-5′-Fluoro-2-(3-hydroxypyrrolidin-1-yl)-N-(4-(perfluoroethoxy)phenyl)-[3,3′-bipyridine]-5-carboxamide]
8.52	8.96	–	O=C(Nc1ccc(OC(F)(F)F)cc1)c1cnc(N2CC[C@@H](O)C2)c(-c2cncc(Cl)c2)c1 [Example 50, (R)-5′-Chloro-2-(3-hydroxypyrrolidin-1-yl)-N-(4-(trifluoromethoxy)phenyl)-[3,3′-bipyridine]-5-carboxamide]
8.77	8.89	–	Nc1ncc(-c2cc(C(=O)Nc3ccc(OC(F)(F)F)cc3)cnc2N2CC[C@@H](O)C2)cc1F [Example 241, (R)-6′-Amino-5′-fluoro-2-(3-hydroxypyrrolidin-1-yl)-N-(4-(trifluoromethoxy)phenyl)-[3,3′-bipyridine]-5-carboxamide]
9.22	8.92	–	NCC1CN(c2ncc(C(=O)Nc3ccc(OC(F)(F)F)cc3)cc2-c2cncc(F)c2)CC1O (centres unmarked) [Example 237, 2-(3-(Aminomethyl)-4-hydroxypyrrolidin-1-yl)-5′-fluoro-N-(4-(trifluoromethoxy)phenyl)-[3,3′-bipyridine]-5-carboxamide]
9.30	9.15	–	Nc1ncc(-c2cc(C(=O)Nc3ccc(OC(F)(F)Cl)cc3)cnc2N2CC[C@@H](O)C2)cc1F [Example 271]
> 8.52	9.10	–	Cc1ccc(-c2cc(C(=O)Nc3ccc(OC(F)(F)F)cc3)cnc2N2CC[C@H](O)C2)cn1 [Example 34, (S)-2-(3-Hydroxypyrrolidin-1-yl)-6′-methyl-N-(4-(trifluoromethoxy)phenyl)-[3,3′-bipyridine]-5-carboxamide]
8.22	8.35	–	O=C(Nc1ccc(OC(F)(F)F)cc1)c1cnc(N2CC[C@@H](O)C2)c(-c2cc(F)nc(F)c2)c1 [Example 242, (R)-2′,6′-Difluoro-2-(3-hydroxypyrrolidin-1-yl)-N-(4-(trifluoromethoxy)phenyl)-[3,4′-bipyridine]-5-carboxamide]
8.40	9.40	–	Cc1ncc(-c2cc(C(=O)Nc3ccc(OC(F)(F)F)cc3)cnc2N2CC(CO)C2)cc1F [Example 140, 5′-Fluoro-2-(3-(hydroxymethyl)azetidin-1-yl)-6′-methyl-N-(4-(trifluoromethoxy)phenyl)-[3,3′-bipyridine]-5-carboxamide]
8.70	9.40	–	O=C(Nc1ccc(SC(F)(F)Cl)cc1)c1cnc(N2CC[C@@H](O)C2)c(-c2cncnc2)c1 [Example 217, (R)—N-(4-((Chlorodifluoromethyl)thio)phenyl)-6-(3-hydroxypyrrolidin-1-yl)-5-(pyrimidin-5-yl)nicotinamide]
> 8.52	9.40	–	O=C(Nc1ccc(OC(F)(F)F)cc1)c1cnc(N2C[C@H](O)[C@@H](O)C2)c(-c2cccnc2)c1 [Example 70, 2-((3S,4S)-3,4-Dihydroxypyrrolidin-1-yl)-N-(4-(trifluoromethoxy)phenyl)-[3,3′-bipyridine]-5-carboxamide]
8.70	8.59	–	NC1CN(c2ncc(C(=O)Nc3ccc(OC(F)(F)F)cc3)cc2-c2cncc(F)c2)C1 [Example 238, 2-(3-Aminoazetidin-1-yl)-5′-fluoro-N-(4-(trifluoromethoxy)phenyl)-[3,3′-bipyridine]-5-carboxamide]
8.40	8.96	–	Cc1ccc(-c2cc(C(=O)Nc3ccc(OC(F)(F)F)cc3)cnc2N2CC(O)C2)cn1 [Example 127, 2-(3-Hydroxyazetidin-1-yl)-6′-methyl-N-(4-(trifluoromethoxy)phenyl)-[3,3′-bipyridine]-5-carboxamide]
> 8.52	8.37	–	O=C(Nc1ccc(OC(F)(F)F)c(Cl)c1)c1cnc(N2CC[C@@H](O)C2)c(-c2cncnc2)c1 [Example 204, (R)—N-(3-Chloro-4-(trifluoromethoxy)phenyl)-6-(3-hydroxypyrrolidin-1-yl)-5-(pyrimidin-5-yl)nicotinamide]
–	9.70	–	Cc1ccncc1-c1cc(C(=O)Nc2ccc(OC(F)(F)Cl)cc2)cnc1N1CC[C@@H](O)C1 [Example 291, (R)—N-(4-(Chlorodifluoromethoxy)phenyl)-2-(3-hydroxypyrrolidin-1-yl)-4′-methyl-[3,3′-bipyridine]-5-carboxamide]
–	–	6.07	O=C(Nc1ccc(OC(F)(F)F)cc1Cl)c1cnc(N2CC[C@@H](O)C2)c(-c2cncnc2)c1

The next lines start with the compound.

SMILES	pIC50 [1]	pIC50 [2]	pIC50 [2, 3]
O=C(Nc1ccc(OC(F)(F)Cl)cc1)c1ccc(N2C[C@H](O)[C@@H](O)C2)c(-c2cncnc2)c1 [Example 244, N-(4-(Chlorodifluoromethoxy)phenyl)-4-((3S,4S)-3,4-dihydroxypyrrolidin-1-yl)-3-(pyrimidin-5-yl)benzamide]	9.00	9.22	–
N#Cc1cncc(-c2cc(C(=O)Nc3ccc(SC(F)(F)F)c(F)c3)cnc2N2CC[C@@H](O)C2)c1 [Example 207, (R)-5′-Cyano-N-(3-fluoro-4-((trifluoromethyl)thio)phenyl)-2-(3-hydroxypyrrolidin-1-yl)-[3,3′-bipyridine]-5-carboxamide]	8.52	8.96	–
CCN(CCO)c1ncc(C(=O)Nc2ccc(OC(F)(F)Cl)cc2)cc1-c1cncc(F)c1 [Example 183, N-(4-(Chlorodifluoromethoxy)phenyl)-2-(ethyl(2-hydroxyethyl)amino)-5′-fluoro-[3,3′-bipyridine]-5-carboxamide]	8.70	9.30	–
CN(CCO)c1ncc(C(=O)Nc2ccc(OC(F)(F)F)cc2)cc1-c1cncc(C#N)c1 [Example 155, 5′-Cyano-2-((2-hydroxyethyl)(methyl)amino)-N-(4-(trifluoromethoxy)phenyl)-[3,3′-bipyridine]-5-carboxamide]	7.96	8.30	–
O=C(Nc1ccc(S(=O)(=O)C(F)(F)F)cc1)c1cnc(N2CC[C@@H](O)C2)c(-c2cncnc2)c1 [Example 214, (R)-6-(3-Hydroxypyrrolidin-1-yl)-5-(pyrimidin-5-yl)-N-(4-((trifluoromethyl)sulfonyl)phenyl)nicotinamide]	8.10	8.09	–
Nc1ncc(-c2cc(C(=O)Nc3ccc(OC(F)(F)F)cc3)cnc2N2CCCC2)cn1 [Example 68, 5-(2-Aminopyrimidin-5-yl)-6-(pyrrolidin-1-yl)-N-(4-(trifluoromethoxy)phenyl)nicotinamide]	> 8.52	9.05	–
N[C@@H]1CCCN(c2ncc(C(=O)Nc3ccc(OC(F)(F)Cl)cc3)cc2-c2cncnc2)C1 [Example 255]	8.68	8.96	–
CCN(CCO)c1ncc(C(=O)Nc2ccc(SC(F)(F)F)cc2)cc1-c1cncnc1 [Example 195, 6-(Ethyl(2-hydroxyethyl)amino)-5-(pyrimidin-5-yl)-N-(4-((trifluoromethyl)thio)phenyl)nicotinamide]	8.52	> 9.89	–
O=C(Nc1ccc(OC(F)(F)Cl)cc1)c1cnc(N2C[C@H](O)[C@@H](O)C2)c(-c2cncc(F)c2)c1 [Example 265]	8.52	> 9.89	–
Cc1ncc(-c2cc(C(=O)Nc3ccc(OC(F)(F)Cl)cc3)ccc2N2C[C@H](O)[C@@H](O)C2)cn1 [Example 246, N-(4-(Chlorodifluoromethoxy)phenyl)-4-((3S,4S)-3,4-dihydroxypyrrolidin-1-yl)-3-(2-methylpyrimidin-5-yl)benzamide]	9.00	8.66	–
NC1CN(c2ncc(C(=O)Nc3ccc(OC(F)(F)Cl)cc3)cc2-c2cncnc2)C1 [Example 259]	8.29	> 9.89	–
N[C@H]1CN(c2ccc(C(=O)Nc3ccc(OC(F)(F)Cl)cc3)cc2-c2cncnc2)C[C@@H]1O [Example 245, 4-((3S,4S)-3-Amino-4-hydroxypyrrolidin-1-yl)-N-(4-(chlorodifluoromethoxy)phenyl)-3-(pyrimidin-5-yl)benzamide]	8.30	9.00	–
O=C(Nc1ccc(OC(F)(F)Cl)cc1)c1ccc(N2CC[C@@H](O)C2)c(-c2cncnc2)c1 [Example 243, (R)—N-(4-(Chlorodifluoromethoxy)phenyl)-4-(3-hydroxypyrrolidin-1-yl)-3-(pyrimidin-5-yl)benzamide]	8.89	9.30	–
O=C(Nc1ccc(SC(F)(F)F)cc1)c1cnc(N2CC[C@H](CO)C2)c(-c2cncnc2)c1 [Example 189, (S)-6-(3-(Hydroxymethyl)pyrrolidin-1-yl)-5-(pyrimidin-5-yl)-N-(4-((trifluoromethyl)thio)phenyl)nicotinamide]	8.52	9.00	–
O=C(Nc1ccc(OC(F)(F)F)cc1)c1cnc(N2CCOCC2)c(-c2cncnc2)c1 [Example 148, 6-Morpholino-5-(pyrimidin-5-yl)-N-(4-(trifluoromethoxy)phenyl)nicotinamide]	8.52	8.60	–
O=C(Nc1ccc(SC(F)F)cc1)c1cnc(N2CC[C@@H](O)C2)c(-c2cncnc2)c1 [Example 211, (R)—N-(4-((Difluoromethyl)thio)phenyl)-6-(3-hydroxypyrrolidin-1-yl)-5-(pyrimidin-5-yl)nicotinamide]	7.96	8.48	–
O=C(Nc1c(Cl)cc(OC(F)(F)F)cc1Cl)c1cnc(N2CC[C@@H](O)C2)c(-c2cncnc2)c1	–	–	< 5.00
